Reference: patent publication US10501514B2, “Cyclic galanin-analogs and uses thereof” (LanthioPep B.V., priority 2015, dated 2019)
Where two headings read alike, the source gives them in different places.

Assays:
GalR2 = biological target: T1, GalR2 (Homo sapiens, UniProt O43603); type: cell-based
T1 construct: expressed in transfected cells; host or cells: HEK293
T1 sequence (O43603 1-387): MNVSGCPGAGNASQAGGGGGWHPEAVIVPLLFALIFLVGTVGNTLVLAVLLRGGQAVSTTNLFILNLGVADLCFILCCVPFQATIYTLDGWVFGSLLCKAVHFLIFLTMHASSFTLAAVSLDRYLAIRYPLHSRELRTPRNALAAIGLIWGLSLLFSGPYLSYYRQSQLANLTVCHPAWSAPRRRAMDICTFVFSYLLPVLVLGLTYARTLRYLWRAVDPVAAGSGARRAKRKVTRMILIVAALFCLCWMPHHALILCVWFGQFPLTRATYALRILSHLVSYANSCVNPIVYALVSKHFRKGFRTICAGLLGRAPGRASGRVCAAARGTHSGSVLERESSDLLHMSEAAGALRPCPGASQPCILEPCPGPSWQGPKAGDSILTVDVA
Experimental: (§1) ND indicates ‘not determined’.
Peptide was dissolved in 0.3% ammonia. […] Different isomers were purified and lyophilized.

GalR1 [1] = biological target: T2, GalR1 (Homo sapiens, UniProt P47211)
T2 sequence (P47211 1-349): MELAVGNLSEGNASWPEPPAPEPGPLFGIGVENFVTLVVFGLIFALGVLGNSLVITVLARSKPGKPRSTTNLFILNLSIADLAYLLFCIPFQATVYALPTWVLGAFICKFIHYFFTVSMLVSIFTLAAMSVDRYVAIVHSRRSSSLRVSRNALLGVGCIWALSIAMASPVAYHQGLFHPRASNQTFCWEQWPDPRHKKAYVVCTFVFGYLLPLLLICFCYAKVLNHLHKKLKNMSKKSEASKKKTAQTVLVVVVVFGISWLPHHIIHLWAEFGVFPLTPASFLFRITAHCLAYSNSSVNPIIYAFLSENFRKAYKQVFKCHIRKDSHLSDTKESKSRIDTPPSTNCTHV
Experimental: (§2) The biological activity of the (lanthi)galanins was determined in CHO-K1 cell lines that express either the GalR1, or GalR2 receptor. Activity measurements were performed using commercial kits from DiscoverX for determining arrestin recruitment (GalR1, GalR2) and inhibition of cAMP synthesis (GalR1). In addition, HEK293 cell lines that express the GalR2 receptor have been used for methods from Molecular Probes to measure calcium efflux (GalR2).
as §1
(§3) Peptide was dissolved in 0.3% ammonia. Peptides were incubated o/n at 37° C. for the introduction of the lanthionine via base assisted sulfur extrusion of the disulfide bridged peptide. […] Different isomers were purified and lyophilized. Dry peptides were dissolved in 100 mM phosphate buffer pH=7.6 and peptides were incubated o/n at 50° C. After HPLC purification peptides with a pE formation were selected and used in the different Galanin receptor activation assays.

GalR1 [2] = biological target: T2, GalR1; experiment: inhibition of cAMP synthesis in CHO-K1 cells expressing GalR1 (DiscoverX kit); type: cell-based; design: host or cells: CHO-K1; settings: Table 2; variants chemically obtained by base-assisted sulfur extrusion; 'no' wraps to 'activity' = no activity
Experimental: as §2, §1, §3

[3] = test system: Galanin receptor (GalR1, GalR2); experiment: Galanin receptor activation assays, overall statements in words; type: cell-based; settings: overall statement on galanin receptor activation
Experimental: as §2
Peptide was dissolved in 0.3% ammonia. Peptides were incubated o/n at 37° C. for the introduction of the lanthionine via base assisted sulfur extrusion of the disulfide bridged peptide. Different isomers could be isolated by HPLC applying the same method as was used as for the biologically produced peptides. Different isomers were purified and lyophilized. Dry peptides were dissolved in 100 mM phosphate buffer pH=7.6 and peptides were incubated o/n at 50° C. After HPLC purification peptides with a pE formation were selected and used in the different Galanin receptor activation assays.

SMILES: CC(C)C[C@H](NC(=O)[C@H](CC(C)C)NC(=O)[C@H](Cc1ccc(O)cc1)NC(=O)CNC(=O)[C@H](C)NC(=O)[C@H](C)NC(=O)[C@H](CC(N)=O)NC(=O)[C@H](CC(C)C)NC(=O)[C@H](CC(N)=O)NC(=O)[C@H](Cc1c[nH]c2ccccc12)NC(=O)[C@@H]1CCC(=O)N1)C(=O)NCC(=O)N1CCC[C@H]1C(=O)NC1CSCC(C(=O)O)NC(=O)[C@H](C(C)C)NC(=O)[C@H](C)NC1=O (single isomer, unassigned) [4178 A]
- Ratio EC50s relative to Gal-(1-15), GalR2 Ca efflux (GalR2): 11
- Ratio EC50s relative to Gal-(1-15), GalR2 β-Arrestin (GalR2): 137
- Ratio EC50s relative to Gal-(1-15), GalR1 β-Arrestin (GalR1 [1]): >1000
- Ratio EC50s relative to Gal-(1-15), GalR1 cAMP inhibition (GalR1 [2]): no

SMILES: CC(C)C[C@H](NC(=O)[C@H](CC(C)C)NC(=O)[C@H](Cc1ccc(O)cc1)NC(=O)CNC(=O)[C@H](C)NC(=O)[C@H](C)NC(=O)[C@H](CC(N)=O)NC(=O)[C@H](CC(C)C)NC(=O)[C@H](CC(N)=O)NC(=O)[C@H](Cc1c[nH]c2ccccc12)NC(=O)[C@@H]1CCC(=O)N1)C(=O)NCC(=O)N1CCC[C@H]1C(=O)NC1CSCC(C(=O)O)NC(=O)[C@H](C(C)C)NC(=O)[C@H](C)NC1=O (single isomer, unassigned) [4178 B]
- Ratio EC50s relative to Gal-(1-15), GalR2 Ca efflux (GalR2): 1.4
- Ratio EC50s relative to Gal-(1-15), GalR2 β-Arrestin (GalR2): 2.3
- Ratio EC50s relative to Gal-(1-15), GalR1 β-Arrestin (GalR1 [1]): 39
- Ratio EC50s relative to Gal-(1-15), GalR1 cAMP inhibition (GalR1 [2]): no
- activity, in words [3]: highly active

SMILES: CC(C)C[C@@H]1NC(=O)[C@H](CC(C)C)NC(=O)[C@H](Cc2ccc(O)cc2)NC(=O)C(NC(=O)[C@H](C)NC(=O)[C@H](C)NC(=O)[C@H](CC(N)=O)NC(=O)[C@H](CC(C)C)NC(=O)[C@@H](NC(=O)[C@H](Cc2c[nH]c3ccccc23)NC(=O)[C@@H]2CCC(=O)N2)[C@@H](C)O)CSCC(C(=O)O)NC1=O (single isomer, unassigned) [4179 A, pEWTLNAAlanYLLlan]
- Ratio EC50s relative to Gal-(1-15), GalR2 Ca efflux (GalR2): 94
- Ratio EC50s relative to Gal-(1-15), GalR1 β-Arrestin (GalR1 [1]; Table 2, variants chemically obtained by base-assisted sulfur extrusion, 'no' wraps to 'activity' = no activity): no
- Ratio EC50s relative to Gal-(1-15), GalR1 cAMP inhibition (GalR1 [2]): no

SMILES: CC(C)C[C@@H]1NC(=O)[C@H](CC(C)C)NC(=O)[C@H](Cc2ccc(O)cc2)NC(=O)C(NC(=O)[C@H](C)NC(=O)[C@H](C)NC(=O)[C@H](CC(N)=O)NC(=O)[C@H](CC(C)C)NC(=O)[C@@H](NC(=O)[C@H](Cc2c[nH]c3ccccc23)NC(=O)[C@@H]2CCC(=O)N2)[C@@H](C)O)CSCC(C(=O)O)NC1=O (single isomer, unassigned) [4179 B, pEWTLNAAlanYLLlan]
- Ratio EC50s relative to Gal-(1-15), GalR2 Ca efflux (GalR2): 2.6
- Ratio EC50s relative to Gal-(1-15), GalR2 β-Arrestin (GalR2): 3.8
- Ratio EC50s relative to Gal-(1-15), GalR1 β-Arrestin (GalR1 [1]): 720
- Ratio EC50s relative to Gal-(1-15), GalR1 cAMP inhibition (GalR1 [2]): no
- activity, in words [3]: high activity
